# Assay results as given in patent publication US20090082249A1, “NUTRITIONAL SUPPLEMENT FOR A CATEGORY OF HIV PATIENTS” (N.V. Nutricia, priority 2005, published 2009).
# Tested on: intestinal tight junction permeability
# Test: Inflammatory mediated intestinal tight junction permeability
smiles,measurement,value
"CCCCC/C=C\C/C=C\C/C=C\CCCCC(=O)O [GLA, gamma linolenic acid]",reduction of inflammatory mediated intestinal tight junction permeability,effectively reduce
